In patent US20080227820A1, “CYCLIC PHENYL-SUBSTITUTED INDAZOLS, A PROCESS FOR THEIR PRODUCTION AND THEIR USE AS ANTI-INFLAMMATORY AGENTS” (priority 2006, published 2008):

Experiments:
[1] = target: T1, glucocorticoid receptor (GR) (Homo sapiens, UniProt P04150); assay: Binding to recombinant glucocorticoid receptor, Sf9 cytosol, vs [3H]-dexamethasone; settings: [3H]-dexamethasone reference
T1 construct: made in house; host or cells: Sf9 cells infected with recombinant baculovirus (cytosol preparation)
T1 sequence (P04150 1-777): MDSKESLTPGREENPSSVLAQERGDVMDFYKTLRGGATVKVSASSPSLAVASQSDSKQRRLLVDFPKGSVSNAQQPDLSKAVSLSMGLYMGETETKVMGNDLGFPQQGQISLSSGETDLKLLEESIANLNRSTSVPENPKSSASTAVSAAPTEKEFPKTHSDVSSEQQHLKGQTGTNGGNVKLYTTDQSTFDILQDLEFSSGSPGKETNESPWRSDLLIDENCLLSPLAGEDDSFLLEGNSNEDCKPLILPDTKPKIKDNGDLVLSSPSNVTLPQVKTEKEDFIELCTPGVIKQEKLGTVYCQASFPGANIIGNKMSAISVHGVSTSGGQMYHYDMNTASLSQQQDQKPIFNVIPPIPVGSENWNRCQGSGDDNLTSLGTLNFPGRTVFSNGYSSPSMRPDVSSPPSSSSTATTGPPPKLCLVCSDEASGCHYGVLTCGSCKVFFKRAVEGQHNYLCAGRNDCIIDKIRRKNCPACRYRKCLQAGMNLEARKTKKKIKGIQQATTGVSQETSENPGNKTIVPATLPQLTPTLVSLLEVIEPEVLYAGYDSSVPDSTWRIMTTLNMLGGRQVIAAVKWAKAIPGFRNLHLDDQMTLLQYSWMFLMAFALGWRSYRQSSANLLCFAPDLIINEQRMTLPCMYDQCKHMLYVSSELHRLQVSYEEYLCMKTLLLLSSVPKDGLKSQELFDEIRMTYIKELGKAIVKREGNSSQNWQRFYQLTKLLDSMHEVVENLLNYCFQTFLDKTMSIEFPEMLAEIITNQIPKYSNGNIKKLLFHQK
Excerpt: (§1) The binding of the substances to the glucocorticoid receptor (GR) and other steroid hormone receptors (mineral corticoid receptor (MR), progesterone receptor (PR) and androgen receptor (AR)) is examined with the aid of recombinantly produced receptors. Cytosol preparations of Sf9 cells, which had been infected with recombinant baculoviruses, which code for the GR, are used for the binding studies. In comparison to reference substance [^3H]-dexamethasone, the substances show a high to very high affinity to GR.

[2] = target: T2, progesterone receptor (PR) (Homo sapiens, UniProt P06401); assay: Binding to recombinant progesterone receptor; settings: recombinantly produced receptor
T2 sequence (P06401 1-933): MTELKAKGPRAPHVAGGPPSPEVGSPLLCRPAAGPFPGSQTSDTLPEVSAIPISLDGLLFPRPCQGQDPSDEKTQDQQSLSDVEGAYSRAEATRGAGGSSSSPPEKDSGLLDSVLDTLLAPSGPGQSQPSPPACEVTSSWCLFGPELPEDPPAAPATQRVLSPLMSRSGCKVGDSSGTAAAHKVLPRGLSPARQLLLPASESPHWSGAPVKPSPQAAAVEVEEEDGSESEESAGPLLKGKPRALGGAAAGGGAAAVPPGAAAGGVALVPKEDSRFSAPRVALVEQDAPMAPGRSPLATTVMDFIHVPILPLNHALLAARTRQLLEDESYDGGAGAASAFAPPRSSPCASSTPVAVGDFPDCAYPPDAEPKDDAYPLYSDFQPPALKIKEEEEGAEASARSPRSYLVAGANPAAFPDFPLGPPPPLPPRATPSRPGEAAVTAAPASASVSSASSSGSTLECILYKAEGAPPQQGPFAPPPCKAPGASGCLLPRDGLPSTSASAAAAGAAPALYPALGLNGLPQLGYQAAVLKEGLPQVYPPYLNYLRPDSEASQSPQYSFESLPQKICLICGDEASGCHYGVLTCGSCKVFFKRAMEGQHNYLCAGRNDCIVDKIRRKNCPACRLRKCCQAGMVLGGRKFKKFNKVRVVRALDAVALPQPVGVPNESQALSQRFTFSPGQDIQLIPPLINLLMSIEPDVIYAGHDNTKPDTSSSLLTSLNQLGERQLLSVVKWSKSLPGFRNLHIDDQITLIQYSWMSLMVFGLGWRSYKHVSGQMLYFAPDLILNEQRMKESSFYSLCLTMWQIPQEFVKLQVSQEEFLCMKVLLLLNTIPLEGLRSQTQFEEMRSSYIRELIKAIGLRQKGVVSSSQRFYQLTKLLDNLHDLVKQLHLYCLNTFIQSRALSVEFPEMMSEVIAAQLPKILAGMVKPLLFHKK
Excerpt: as §1

[3] = target: ER; assay: Steroid receptor binding, ER
[4] = tested on: human monocyte cell line THP-1; assay: Inhibition of LPS-triggered IL-8 secretion in THP-1 cells (ELISA); format: cell-based
Experimental: The concentration of the cytokines was determined in the supernatant by means of commercially available ELISA kits.

[5] = target: T3, mineral corticoid receptor (MR) (Homo sapiens, UniProt P08235); assay: Binding to recombinant mineral corticoid receptor; settings: recombinantly produced receptor
T3 sequence (P08235 1-984): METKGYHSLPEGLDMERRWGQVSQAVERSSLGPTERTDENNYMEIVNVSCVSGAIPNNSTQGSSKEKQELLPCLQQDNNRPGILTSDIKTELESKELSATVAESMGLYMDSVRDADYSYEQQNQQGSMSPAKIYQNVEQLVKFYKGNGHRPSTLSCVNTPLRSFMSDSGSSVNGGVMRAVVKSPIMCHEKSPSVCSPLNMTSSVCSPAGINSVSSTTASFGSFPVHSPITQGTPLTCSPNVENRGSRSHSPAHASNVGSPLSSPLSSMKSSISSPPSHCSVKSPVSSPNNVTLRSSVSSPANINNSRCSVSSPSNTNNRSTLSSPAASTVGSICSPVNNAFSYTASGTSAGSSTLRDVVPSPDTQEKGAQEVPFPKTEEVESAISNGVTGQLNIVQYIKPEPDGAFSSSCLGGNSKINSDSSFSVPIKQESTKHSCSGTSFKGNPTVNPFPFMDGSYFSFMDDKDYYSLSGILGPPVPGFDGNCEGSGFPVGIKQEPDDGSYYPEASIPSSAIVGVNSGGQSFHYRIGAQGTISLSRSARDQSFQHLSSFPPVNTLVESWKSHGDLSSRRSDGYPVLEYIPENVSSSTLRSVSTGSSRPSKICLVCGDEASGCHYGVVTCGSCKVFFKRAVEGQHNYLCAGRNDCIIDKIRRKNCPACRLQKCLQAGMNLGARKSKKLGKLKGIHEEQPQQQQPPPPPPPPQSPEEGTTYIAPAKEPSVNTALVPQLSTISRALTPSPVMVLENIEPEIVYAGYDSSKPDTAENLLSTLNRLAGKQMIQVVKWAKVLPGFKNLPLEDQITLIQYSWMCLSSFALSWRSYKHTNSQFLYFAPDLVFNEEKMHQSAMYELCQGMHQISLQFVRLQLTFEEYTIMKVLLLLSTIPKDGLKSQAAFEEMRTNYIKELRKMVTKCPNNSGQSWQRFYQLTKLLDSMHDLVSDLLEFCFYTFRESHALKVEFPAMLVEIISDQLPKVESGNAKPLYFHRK
Excerpt: as §1

[6] = target: T4, androgen receptor (AR) (Homo sapiens, UniProt P10275); assay: Binding to recombinant androgen receptor; settings: recombinantly produced receptor
T4 sequence (P10275 1-920): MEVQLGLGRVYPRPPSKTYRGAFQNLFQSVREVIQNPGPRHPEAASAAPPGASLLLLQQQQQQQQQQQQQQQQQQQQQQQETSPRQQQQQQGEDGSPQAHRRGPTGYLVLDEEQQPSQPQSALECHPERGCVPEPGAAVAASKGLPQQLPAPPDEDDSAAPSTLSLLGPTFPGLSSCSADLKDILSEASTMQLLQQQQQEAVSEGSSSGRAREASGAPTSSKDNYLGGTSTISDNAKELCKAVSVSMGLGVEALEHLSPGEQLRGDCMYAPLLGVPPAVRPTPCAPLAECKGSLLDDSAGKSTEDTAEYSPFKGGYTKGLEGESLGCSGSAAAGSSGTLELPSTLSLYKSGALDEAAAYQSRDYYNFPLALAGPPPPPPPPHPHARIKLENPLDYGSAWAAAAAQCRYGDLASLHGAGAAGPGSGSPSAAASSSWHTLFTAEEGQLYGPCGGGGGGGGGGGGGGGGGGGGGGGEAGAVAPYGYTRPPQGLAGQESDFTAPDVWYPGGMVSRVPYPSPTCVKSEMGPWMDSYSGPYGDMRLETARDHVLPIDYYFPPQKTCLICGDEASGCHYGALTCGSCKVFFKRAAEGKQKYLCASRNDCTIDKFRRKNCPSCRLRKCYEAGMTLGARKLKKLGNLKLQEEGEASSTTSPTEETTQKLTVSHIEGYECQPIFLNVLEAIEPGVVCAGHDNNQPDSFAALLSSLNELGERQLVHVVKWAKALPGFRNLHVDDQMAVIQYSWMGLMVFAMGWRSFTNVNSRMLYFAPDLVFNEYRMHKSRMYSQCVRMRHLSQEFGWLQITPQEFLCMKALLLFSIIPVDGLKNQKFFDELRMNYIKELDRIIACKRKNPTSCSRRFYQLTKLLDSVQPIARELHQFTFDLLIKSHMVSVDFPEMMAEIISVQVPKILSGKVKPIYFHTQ
Excerpt: as §1

CC[C@@H]1C[C@](O)(C(F)(F)F)[C@@H](Nc2cccc3c2cnn3-c2ccc(F)cc2)c2ccc(F)c(O)c21 [Example 4]
IC50 [1]: 16.5 nM | IC50 [2]: > 1000 nM | IC50 [3]: > 1000 nM | IC50 ([4]; Homo sapiens, THP-1, supernatant ELISA, read-out: IC50(IL8)): 2.4 nM | eff. relative to dexamethasone (IL-8 inhibition) ([4]; THP-1, relative to dexamethasone): 91% | IC50 [5]: > 1000 nM | IC50 [6]: > 1000 nM
